US20230128889A1, “REL/RELA/SPOT SMALL MOLECULES MODULATORS AND SCREENING METHODS” (priority 2020, published 2023)
Substitutions are numbered along the chain they refer to. Names and notes keep the numbering of the source. Where two headings read alike, the source gives them in different places.

Tests used:
RelTt^NTD = RelTt^NTD (Thermus thermophilus, UniProt Q5SHL3); test: Isothermal Titration Calorimetry (ITC), titration into RelTt^NTD; format: binding, T. thermophilus
Method: (§1) To directly address the sequential binding hypothesis, we monitored the binding of these nucleotides using Isothermal Titration Calorimetry (ITC). […] However, once the RelTt^NTD-GDP complex is formed, APCPP binds with an affinity of around 50 μM (FIG. 9h and Table 6). The incorporation of both GDP and APCPP is entropically driven (FIG. 11b and Table 6). In the case of the binding of GDP to the SYN-domain, the release of ordered water molecules from the GDP binding cleft is accompanied by the movement of α6-α7 that partially occludes the HD active center and an increase in the enzyme flexibility as observed in the crystal structure. All these structural changes are consistent with entropically driven binding events. […] In addition, it creates an ‘entropy reservoir’ that drives the binding of APCPP with the release of water molecules from the now exposed binding cleft. This supports the notion that GDP must ‘open’ the enzyme to reveal the ATP binding site, as predicted from the analysis of the crystallographic data.

RelTt^NTD-APCPP complex = RelTt^NTD-APCPP complex (Thermus thermophilus, UniProt Q5SHL3); test: ITC, titration into RelTt^NTD-APCPP complex; format: binding, T. thermophilus
Chain of RelTt^NTD-APCPP complex (Q5SHL3 entry or part of it, one chain of several): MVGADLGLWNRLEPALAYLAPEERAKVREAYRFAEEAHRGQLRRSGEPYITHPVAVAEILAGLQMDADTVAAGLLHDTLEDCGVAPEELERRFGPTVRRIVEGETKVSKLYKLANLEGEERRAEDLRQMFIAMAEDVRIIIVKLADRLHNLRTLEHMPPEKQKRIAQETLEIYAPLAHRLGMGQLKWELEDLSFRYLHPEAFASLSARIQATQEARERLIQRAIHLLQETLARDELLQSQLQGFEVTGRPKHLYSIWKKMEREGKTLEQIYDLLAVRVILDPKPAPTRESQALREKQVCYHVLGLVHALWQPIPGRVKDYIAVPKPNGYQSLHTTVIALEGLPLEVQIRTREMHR
Method: as §1

RelTt^NTD-GDP complex = RelTt^NTD-GDP complex (Thermus thermophilus, UniProt Q5SHL3); test: ITC, titration into RelTt^NTD-GDP complex; format: binding, T. thermophilus
Chain of RelTt^NTD-GDP complex (Q5SHL3 entry or part of it, one chain of several): as above
Method: as §1

Rel synthetase (ST) = test: Inhibition of Rel synthetase activity: (p)ppGpp production from GDP or GTP and radioactive ATP, TLC; format: biochemical; settings: enzyme with GDP or GTP and radioactive ATP, absence or presence of compound
Method: (§2) As indicated above, the “Yes/No” in the 5th and 6th columns of TABLES A to F indicates whether there is, or respectively is not an inhibition of the synthetase (ST) and/or hydrolase (HD) activity. […] The action of a candidate compound is evaluated based on its effect on the production of (p)ppGpp. Therefore, in order to assess the potential influence of a candidate compound on synthesis activity, the enzyme was mixed with GDP or GTP and radioactive ATP to produce (p)ppGpp in absence or presence of the candidate compound. Subsequently, the reaction is developed by thin layer chromatography (TLC). In an alternative assay that enables determining the effect of a compound on the hydrolysis activity, radioactive (p)ppGpp is incubated with the enzyme and any decrease of the (p)ppGpp spot on TLC is evaluated when the assay is conducted in presence of the compound and compared to control conditions where no candidate compound is added during incubation.

Rel hydrolase (HD) = test: Inhibition of Rel hydrolase activity: decrease of radioactive (p)ppGpp spot on TLC; format: biochemical; settings: radioactive (p)ppGpp incubated with enzyme, with vs without compound
Method: as §2

full-length RelTt = test: ppGpp synthesis (synthase) activity of full-length RelTt and variants, 3H-labeled GDP; format: biochemical, T. thermophilus; set-up: Synthase activity, Substrate: GDP + ATP, RelTt + IC / Synthase activity, Substrate: GDP + ATP, RelTt + IC + tRNA^Val: unit not given here; settings: 40° C.; for Synthase activity, Substrate: GDP + ATP, RelTt + IC + tRNA^Val: with 70S IC and deacylated tRNA^Val; for Synthase activity, Substrate: GDP + ATP, RelTt + IC: with T. thermophilus 70S IC
Method: FIG. 1. Biochemical characterization of full-length RelTt. (a) Hydrolysis activity of 100 nM full-length RelTt was assayed in the presence of 0.5 mM 3H-labeled ppGpp substrate either at 4° C. or 40° C. Synthetic activity of 30 nM full-length RelTt was assayed at 40° C. in the presence of either 1 mM ATP (b) or 1 mM APPNP (c), as well 0.3 mM of 3H-labeled GDP and 0.1 mM ppGpp. As indicated on the figure, the reactions were supplemented with 120 nM T. thermophilus 70S IC(MV) added either alone or in combination with 2 μM deacylated E. coli tRNAVal. All experiments were performed in HEPES:Polymix buffer, pH 7.5, 5 mM Mg^2+, either in the presence (a) or absence (b and c) of 0.5 mM Mn^2+. Error bars represent Standard deviations of the turnover estimates by linear regression.

Chain of RelTt^NTD (Q5SHL3 entry or part of it): as the sequence (Q5SHL3 entry or part of it, one chain of several) above

## Nc1nc2c(ncn2[C@@H]2O[C@H](COP(=O)(O)OP(=O)(O)O)[C@@H](O)[C@H]2O)c(=O)[nH]1 [GDP]
RelTt^NTD
  ΔG: -25.6 ± 0.042 kJ/mol
  ΔH: 5.44 ± 4.2 kJ/mol
  −TΔS: -31.8 ± 4.2 kJ/mol
RelTt^NTD; read-out: Kd
  Kd: 23 µM
RelTt^NTD-APCPP complex
  Kd: 24.7 ± 0.9 µM
  ΔG: -25.5 ± 0.42 kJ/mol
  ΔH: 1.7 ± 4.2 kJ/mol
  −TΔS: -27.2 ± 4.2 kJ/mol

## Nc1ncnc2c1ncn2[C@@H]1O[C@H](COP(=O)(O)CP(=O)(O)OP(=O)(O)O)[C@@H](O)[C@H]1O [APCPP]
RelTt^NTD
  Kd: does not bind
RelTt^NTD-GDP complex
  Kd: 50.4 µM
  ΔG: -23.7 ± 0.29 kJ/mol
  ΔH: 7.53 ± 4.2 kJ/mol
  −TΔS: -31.4 ± 4.2 kJ/mol

## O=[N+]([O-])c1cccc(CN2CCN(S(=O)(=O)c3ccc4ccccc4c3)CC2)c1 [Compound 5]
Rel synthetase (ST)
  ST (inhibition of the synthetase activity): No
Rel hydrolase (HD)
  HD (inhibition of the hydrolase activity): Yes

## O=C(O)C1Cc2ccccc2CN1C(=O)Cn1nnc2ccccc21 (centres unmarked) [Compound 6]
Rel synthetase (ST)
  ST (inhibition of the synthetase activity): No
Rel hydrolase (HD)
  HD (inhibition of the hydrolase activity): Yes

## O=C(O)CC(CNC(=O)CCn1nnc2ccccc2c1=O)c1ccc(Cl)cc1 (centres unmarked) [Compound 4]
Rel synthetase (ST)
  ST (inhibition of the synthetase activity): No
Rel hydrolase (HD)
  HD (inhibition of the hydrolase activity): Yes

## O=C(O)CCNS(=O)(=O)c1cc2c3c(cccc3c1)C(=O)NC2=O [Compound 51]
Rel synthetase (ST)
  ST (inhibition of the synthetase activity): Yes
Rel hydrolase (HD)
  HD (inhibition of the hydrolase activity): Yes

## Cc1[nH]c2ccnn2c(=O)c1CC(=O)N(CCC(=O)O)CC1CCCO1 (centres unmarked) [Compound 54]
Rel synthetase (ST)
  ST (inhibition of the synthetase activity): No
Rel hydrolase (HD)
  HD (inhibition of the hydrolase activity): Yes

## Cc1c(Br)c([N+](=O)[O-])nn1CC(=O)Nc1ccc(Cl)cc1Cl [Compound 67]
Rel synthetase (ST)
  ST (inhibition of the synthetase activity): Yes
Rel hydrolase (HD)
  HD (inhibition of the hydrolase activity): Yes

## CC(C(=O)O)C(NC(=O)C(C)n1nnc(-c2ccccc2)n1)c1ccccc1 (centres unmarked) [Compound 61]
Rel synthetase (ST)
  ST (inhibition of the synthetase activity): No
Rel hydrolase (HD)
  HD (inhibition of the hydrolase activity): Yes

## O=C1c2cccc3cc([N+](=O)[O-])cc(c23)C(=O)N1O [Compound 50]
Rel synthetase (ST)
  ST (inhibition of the synthetase activity): Yes
Rel hydrolase (HD)
  HD (inhibition of the hydrolase activity): No

## O=C1Nc2ccccc2/C1=N\c1cccc([N+](=O)[O-])c1 [Compound 39]
Rel synthetase (ST)
  ST (inhibition of the synthetase activity): Yes
Rel hydrolase (HD)
  HD (inhibition of the hydrolase activity): No

## O=C(O)/C=C/c1cccc(NC2C(=O)Nc3ccccc32)c1 (centres unmarked) [Compound 31]
Rel synthetase (ST)
  ST (inhibition of the synthetase activity): No
Rel hydrolase (HD)
  HD (inhibition of the hydrolase activity): Yes

## O=c1oc2cc(OCc3nnn[nH]3)ccc2cc1-c1ccc2ccccc2c1 [Compound 21]
Rel synthetase (ST)
  ST (inhibition of the synthetase activity): Yes
Rel hydrolase (HD)
  HD (inhibition of the hydrolase activity): Yes

## Cc1ccc(Nc2nc(N/N=C/c3cc(Cl)ccc3O)nc(Nc3ccc([N+](=O)[O-])cc3)n2)cc1C [Compound 66]
Rel synthetase (ST)
  ST (inhibition of the synthetase activity): Yes
Rel hydrolase (HD)
  HD (inhibition of the hydrolase activity): No

## Cc1cc(C(=O)N2CCN(c3ncccn3)CC2)c(N)c([N+](=O)[O-])c1 [Compound 63]
Rel synthetase (ST)
  ST (inhibition of the synthetase activity): No
Rel hydrolase (HD)
  HD (inhibition of the hydrolase activity): Yes

## COc1ccc(CC(=O)Nc2ccc(N3CCC(N4CCCCC4)CC3)cc2C(=O)O)cc1 [Compound 73]
Rel synthetase (ST)
  ST (inhibition of the synthetase activity): Yes
Rel hydrolase (HD)
  HD (inhibition of the hydrolase activity): Yes

## O=C1N/C(=N\N=C\c2cccc3ccccc23)SC1Cc1ccccc1[N+](=O)[O-] (centres unmarked) [Compound 24]
Rel synthetase (ST)
  ST (inhibition of the synthetase activity): Yes
Rel hydrolase (HD)
  HD (inhibition of the hydrolase activity): Yes

## O=C(Nc1nnn[nH]1)c1cc(-c2ccc3c(c2)CCO3)[nH]n1 [Compound 32]
Rel synthetase (ST)
  ST (inhibition of the synthetase activity): No
Rel hydrolase (HD)
  HD (inhibition of the hydrolase activity): Yes

## Cc1cc(OCC(=O)O)c2c(C)c(Cc3ccccc3)c(=O)oc2c1 [Compound 11]
Rel synthetase (ST)
  ST (inhibition of the synthetase activity): Yes
Rel hydrolase (HD)
  HD (inhibition of the hydrolase activity): No

B1: R249A D272A: RelTt with substitutions R249A and D272A (protein)
chain: MVGADLGLWNRLEPALAYLAPEERAKVREAYRFAEEAHRGQLRRSGEPYITHPVAVAEILAGLQMDADTVAAGLLHDTVEDCGVAPEELERRFGPTVRRIVEGETKVSKLYKLANLEGEERRAEDLRQMFIAMAEDVRIIIVKLADRLHNLRTLEHMPPEKQKRIAQETLEIYAPLAHRLGMGQLKWELEDLSFRYLHPEAFASLSARIQATQEARERLIQKAIHLLQETLARDELLQSQLQGFEVTGAPKHLYSIWKKMEREGKTLEQIYALLAVRVILDPKPAPTRESQALREKQVCYHVLGLVHALWQPIPGRVKDYIAVPKPNGYQSLHTTVIALEGLPLEVQIRTREMHRVAEYGIAAHWLYKEGLTDPEEVKRRVSWLKSIQEWQKEFSSSREFVEAVTKDLLGGRVFVFTPKGRIINLPKGATPVDFAYHIHTEVGHHMVGAKVNGRIVPLSYELQNGEIVEILTSKNAHPSKGWLEFAKTRSAKSKIRQYFRAQERQETLERGQHLLERYLKRRGLPKPTDSQLEEAAKRLSLPPSPEELYLALALNRLTPRQVAEKLYPKALLKPEKPKPQVRNEWGIRLEQDLQAPIRLASCCEPMKGDPILGFVTRGRGVTVHRADCPNLRRLLQGPEADRVIGAYWEGVGGKVVVLEVLAQDRAGLLRDVMQVVAEAGKSALGSETRVLGPLARIRLRLAVQDGEEERILQAVQKVSGVKEARWA
full-length RelTt
  Synthase activity, Substrate: GDP + ATP, RelTt + IC + tRNA^Val: 12.0 ± 2.0
  Synthase activity, Substrate: GDP + ATP, RelTt + IC: 8.5 ± 1.0

B2: R249A R277A: RelTt with substitutions R249A and R277A (protein)
chain: B1 chain with A272D, R277A
full-length RelTt; enzyme alone, triplicate
  Synthase activity, Substrate: GDP + ATP, RelTt: 2.6 ± 0.6
full-length RelTt
  Synthase activity, Substrate: GDP + ATP, RelTt + IC + tRNA^Val: 10.5 ± 1.8
  Synthase activity, Substrate: GDP + ATP, RelTt + IC: 8.6 ± 2

B3: R249A R277A Y329A: RelTt with substitutions R249A, R277A and Y329A (protein)
chain: B1 chain with A272D, R277A, Y329A
full-length RelTt
  Synthase activity, Substrate: GDP + ATP, RelTt + IC + tRNA^Val: 5.4 ± 2.1
  Synthase activity, Substrate: GDP + ATP, RelTt + IC: 4.5 ± 2.3

B4: R249A D272A Y329A: RelTt with substitutions R249A, D272A and Y329A (protein)
chain: B1 chain with Y329A
full-length RelTt
  Synthase activity, Substrate: GDP + ATP, RelTt + IC + tRNA^Val: 8.8 ± 0.69
  Synthase activity, Substrate: GDP + ATP, RelTt + IC: 10.9 ± 3.6
